Where two headings read alike, the source gives them in different places.
Experiments:
[1] = target: T1, RORγ (UniProt P51449); assay: RORγ Gal4 Reporter Gene Assay in 293T cells (firefly and renilla luciferase); assay type: cell-based, human
T1 sequence (P51449 1-518): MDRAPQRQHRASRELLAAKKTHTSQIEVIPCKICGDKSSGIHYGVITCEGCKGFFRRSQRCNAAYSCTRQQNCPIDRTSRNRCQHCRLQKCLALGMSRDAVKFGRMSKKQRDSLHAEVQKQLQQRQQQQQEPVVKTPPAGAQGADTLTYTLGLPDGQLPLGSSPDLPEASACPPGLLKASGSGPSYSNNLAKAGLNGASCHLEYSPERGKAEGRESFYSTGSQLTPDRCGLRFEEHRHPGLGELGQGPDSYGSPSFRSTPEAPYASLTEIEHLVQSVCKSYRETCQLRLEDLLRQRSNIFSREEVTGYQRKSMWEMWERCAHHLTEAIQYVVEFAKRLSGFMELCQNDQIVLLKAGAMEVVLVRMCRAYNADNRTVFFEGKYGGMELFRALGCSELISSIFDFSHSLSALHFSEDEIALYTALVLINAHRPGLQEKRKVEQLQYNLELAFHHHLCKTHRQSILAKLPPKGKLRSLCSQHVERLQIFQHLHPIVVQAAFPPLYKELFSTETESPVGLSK

[2] = target: T2, RORγ ligand binding domain (LBD) (Homo sapiens, UniProt P51449); assay: TR-FRET Activity Assay (ligand sensing, RORγ-LBD / coactivator peptide interaction, LANCE); assay type: biochemical
T2 construct: made in house; host or cells: E. coli BL-21 (BL3), vector pDEST15
T2 sequence (P51449 269-508 limits assumed): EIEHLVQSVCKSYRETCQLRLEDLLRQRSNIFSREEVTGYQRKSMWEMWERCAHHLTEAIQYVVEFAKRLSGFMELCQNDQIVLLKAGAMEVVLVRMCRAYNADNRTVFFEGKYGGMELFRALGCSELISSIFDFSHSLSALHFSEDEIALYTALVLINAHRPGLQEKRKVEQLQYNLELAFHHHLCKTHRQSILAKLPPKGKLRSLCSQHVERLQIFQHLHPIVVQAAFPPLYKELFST

[3] = second value of the cell, Gal4 reporter gene assay in 293T cells, firefly luciferase
[4] = third value of the cell, Gal4 reporter gene assay in 293T cells, renilla normalised luciferase
[5] = first value of the cell FRET/FF/REN, TR-FRET activity assay, read-out: pIC50 (FRET) (converted)

Row | SMILES | pIC50 (FF) [1, 3] | pIC50 (REN) [1, 4] | IC50 [2, 5] | pIC50 (FF) [1] | pIC50 (REN) [1] | IC50 [2]
1 | Cc1c(C(=O)NC2COC2)cc(-c2cc(C(C)(C)C)cc(C(C)(C)CF)c2)n1CC1CCCCC1 [17/42] |  |  |  | 5.7/7.5/7.6 | 5.7/7.5/7.6 | 2 µM
2 | Cc1c(C(=O)NCC2COC2)cc(-c2cc(C(C)(C)C)cc(C(C)(C)C)c2)n1CC1CCCCC1 [17/43] | 7.4 | 7.4 | 0.2 µM |  |  | 
3 | Cc1c(C(=O)NCC2(CCO)COC2)cc(-c2cc(C(C)(C)C)cc(C(C)(C)C)c2)n1CC1CCCCC1 [17/44] |  |  |  | 6.2/6.1/6.1 | 6.2/6.1/6.1 | 0.631 µM
4 | Cc1c(C(=O)N2CC2CO)cc(-c2cc(C(C)(C)C)cc(C(C)(C)C)c2)n1CC1CCCCC1 (stereo not drawn) [17/45] |  |  |  | 6.0/6.5/6.4 | 6.0/6.5/6.4 | 1 µM
5 | COC(=O)CC1(NC(=O)c2cc(-c3cc(C(C)(C)C)cc(C(C)(C)C)c3)n(CC3CCCCC3)c2C)COC1 [17/46] | 6.5/6.5/6.5 | 6.5/6.5/6.5 | 0.316 µM |  |  | 
6 | COCC1(CNC(=O)c2cc(-c3cc(C(C)(C)C)cc(C4(C)CC4)c3)n(CC3CCCCC3)c2C)COC1 [17/47] |  |  |  | 6.7/7.3/7.4 | 6.7/7.3/7.4 | 0.2 µM
7 | Cc1c(C(=O)NCC2(O)CCOCC2)cc(-c2cc(C(C)(C)C)c3c(c2)C(C)(C)C(=O)N3C)n1CC1CCCCC1 [17/48] | 7.6 | 7.5 | 1 µM |  |  | 
8 | Cc1c(C(=O)NCC(C)(C)C(=O)O)cc(-c2cc(C(C)(C)C)c3c(c2)C(C)(C)C(=O)N3C)n1CC1CCCCC1 [17/49] | 7.0 | 7.1 | 2 µM |  |  | 
9 | Cc1c(C(=O)NCC2(C(=O)O)CC2)cc(-c2cc(C(C)(C)C)c3c(c2)C2(CCO3)CC2)n1CC1CCCCC1 [17/51] | 6.7 | 6.7 | 1.58 µM |  |  | 
10 | Cc1c(C(=O)N2CC(C(=O)O)C2)cc(-c2cc(C(C)(C)C)c3c(c2)C2(CCO3)CC2)n1CC1CCCCC1 [17/52] | 6.7 | 6.7 | 1.58 µM |  |  | 
11 | Cc1c(C(=O)N2CCC(C(=O)O)CC2)cc(-c2cc(C(C)(C)C)c3c(c2)C2(CCO3)CC2)n1CC1CCCCC1 [17/53] | 6.9 | 6.9 | 1.58 µM |  |  | 
12 | Cc1c(C(=O)NC[C@H]2CC[C@H](C(=O)O)CC2)cc(-c2cc(C(C)(C)C)c3c(c2)C2(CCO3)CC2)n1CC1CCCCC1 [17/59] |  |  |  | 5.7/6.6/6.6 | 5.7/6.6/6.6 | 2 µM
13 | Cc1c(C(=O)NCC2(C(=O)O)CCOCC2)cc(-c2cc(C(C)(C)C)cc(C3(C)CC3)c2)n1CC1CCCCC1 [17/61] | 7.4 | 7.5 | 1 µM |  |  | 

More lines, main results first:

Row | pIC50 (FF) [1, 3] | pIC50 (REN) [1, 4] | IC50 [2, 5] | SMILES | pIC50 (FF) [1] | pIC50 (REN) [1] | IC50 [2]
14 | 7.1 | 7.2 | 1.58 µM | Cc1c(C(=O)N2CCC(C)(C(=O)O)CC2)cc(-c2cc(C(C)(C)C)c3c(c2)C2(CCO3)CC2)n1CC1CCCCC1 [17/54] |  |  | 
15 | 7.5 | 7.6 | 2 µM | Cc1c(C(=O)N[C@H]2C[C@H](C(=O)O)C2)cc(-c2cc(C(C)(C)C)c3c(c2)C2(CCO3)CC2)n1CC1CCCCC1 [17/55] |  |  | 
16 | 6.4 | 6.4 | 12.6 µM | Cc1c(C(=O)N[C@H]2C[C@@H](C(=O)O)C2)cc(-c2cc(C(C)(C)C)c3c(c2)C2(CCO3)CC2)n1CC1CCCCC1 [17/56] |  |  | 
17 | 7.4 | 7.5 | 0.794 µM | Cc1c(C(=O)N[C@H]2CC[C@H](C(=O)O)CC2)cc(-c2cc(C(C)(C)C)c3c(c2)C2(CCO3)CC2)n1CC1CCCCC1 [17/57] |  |  | 
18 | 6.7 | 6.7 | 1.58 µM | Cc1c(C(=O)N[C@H]2CC[C@@H](C(=O)O)CC2)cc(-c2cc(C(C)(C)C)c3c(c2)C2(CCO3)CC2)n1CC1CCCCC1 [17/58] |  |  | 
19 | 7.6 | 7.6 | 1.58 µM | Cc1c(C(=O)NCC(C)(C)C(=O)O)cc(-c2cc(C(C)(C)C)cc(C3(C)CC3)c2)n1CC1CCCCC1 [17/60] |  |  | 
20 | 8.3 | 8.3 | 0.316 µM | Cc1c(C(=O)NCC2(C(N)=O)CCOCC2)cc(-c2cc(C(C)(C)C)cc(C3(C)CC3)c2)n1CC1CCCCC1 [17/62] |  |  | 

From patent US9815851B2, “Pyrrolo carboxamides as modulators of orphan nuclear receptor RAR-related orphan receptor-gamma (RORγ, NR1F3) activity and for the treatment of chronic inflammatory and autoimmune diseases” (PHENEX PHARMACEUTICALS AG, priority 2011, dated 2017)
